{"source": "patent US4889941A", "about": "“Synthetic flavonoids as inhibitors of leukotrienes and 5-lipoxygenase” (Fisons Corporation, priority 1987, dated 1989)", "key": {"[1]": {"tested_on": "leukotriene C4 (LTC4)", "experiment": "Inhibition of LTC4-induced guinea pig ilial contractions", "format": "cell-based", "details": "Cavia porcellus, LTC4 6 nanomolar, read-out: percent inhibition of LTC4-induced contraction", "procedure": "Test for Inhibition of LTC4 -Induced Guinea Pig Ilial Contractions\nThe evaluation of potential anti-allergic compounds for antagonism of the in vitro effects of leukotriene C4 (LTC4) is conducted according to the following procedure. Guinea pig ilial strips are obtained from recently killed animals and hung in isolated tissue baths comprising a balanced solution of salts such as Krebs' solution. After allowing for one hour equilibration of the tissue in the bath, the gram tension (G.T.) on one tissue is arbitrarily set at one. LTC4 (6 nanomolar concentration) is then added to the tissue bath. This induces a long, sustained contraction of the tissue that is measured on the strip chart recorder (the G.T. increases to about 2). After the LTC4 -induced contraction has plateaued and remains stable, increasing amounts of the test compound are added to the bath. If the compound is effective, a decrease in the G.T. (Δ G.T.) from the LTC4 -induced value is seen (e.g., from 2 to 1.5). The percent inhibition at each concentration is calculated according to the formula: [formula] Four replicate tissues are run."}, "[2]": {"experiment": "Solubility in the balanced salts solution of the tissue bath", "format": "physicochemical", "details": "balanced salts solution of the LTC4 ilial assay"}, "[3]": {"tested_on": "edema in a rat anaphylaxis test", "experiment": "Rat anaphylaxis test (paw edema after bovine serum albumin challenge)", "format": "in vivo", "details": "for activity in the rat anaphylaxis test: administered as a suspension", "procedure": "Groups of 15-20 rats are intraperitoneally sensitized with 500 μg of bovine serum albumin-absorbed alum admixed with 2×10^10 killed Bordetella pertussis vaccine organisms. Fourteen days later, the paw volume is measured using a mercury plethysmometer. Immediately thereafter, the test compound suspended in about 1 ml of 1% Clearjel (\"Instant Clearjel\", a food grade pregelatinized starch from National Starch and Chemical Corporation, New York, N.Y.) at 100 mg/kg is administered ip and, one hour later, the right hind paw is injected subcutaneously with 100 μg of bovine serum albumin dissolved in 0.1 ml of saline. (In controls, no test compound is suspended in the Clearjel.) The paw volume is remeasured 90 minutes post antigenic challenge to determine the volume increase (Δ V) since the first measurement. The percent inhibition of edema is [formula] The effect of theophylline (90 mg/kg, po) is tested as a positive control."}, "[4]": {"biological_target": "T1, 5-lipoxygenase (Homo sapiens, UniProt P09917)", "T1 sequence (P09917 1-674)": "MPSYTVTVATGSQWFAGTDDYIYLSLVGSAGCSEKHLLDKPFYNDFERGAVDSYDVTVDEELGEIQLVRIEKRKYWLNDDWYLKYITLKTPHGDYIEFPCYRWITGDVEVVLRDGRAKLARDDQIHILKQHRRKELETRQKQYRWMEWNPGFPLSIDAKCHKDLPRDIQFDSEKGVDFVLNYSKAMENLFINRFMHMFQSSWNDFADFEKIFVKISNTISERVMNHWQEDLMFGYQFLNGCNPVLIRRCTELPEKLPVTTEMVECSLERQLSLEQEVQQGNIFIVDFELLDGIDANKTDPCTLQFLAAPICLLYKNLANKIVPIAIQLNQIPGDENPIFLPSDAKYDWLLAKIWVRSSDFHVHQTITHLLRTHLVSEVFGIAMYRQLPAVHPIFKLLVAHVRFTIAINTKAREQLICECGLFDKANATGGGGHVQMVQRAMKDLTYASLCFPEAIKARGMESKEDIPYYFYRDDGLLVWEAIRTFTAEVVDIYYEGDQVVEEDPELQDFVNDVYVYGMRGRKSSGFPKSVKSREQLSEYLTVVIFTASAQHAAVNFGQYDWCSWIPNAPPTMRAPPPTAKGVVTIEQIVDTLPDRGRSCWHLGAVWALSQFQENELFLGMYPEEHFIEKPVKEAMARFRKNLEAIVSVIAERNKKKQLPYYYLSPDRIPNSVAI", "experiment": "Inhibition of 5-lipoxygenase (5-HETE formation from arachidonic acid, HPLC)", "format": "biochemical", "details": "arachidonic acid 1 mg/ml, pH 7.4, 6 minutes at 30° C.", "procedure": "Test for Inhibition of 5-Lipoxygenase\nThis test is based on the procedure of Arai et al., J. Med. Chem., Vol. 26, 72 (1983).\nArachidonic acid in the presence of the enzyme 5-lipoxygenase is converted to 5-hydroxy-eicosatetraenoic acid (5-HETE) through a 2-step process. To assess the activity of a test compound on 5-lipoxygenase activity, a specific concentration of the test compound is added to 1 mg/ml of arachidonic acid in the presence of the appropriate amount of 5-lipoxygenase in a solution of potassium phosphate buffer containing 1 mM CaCl2 at pH 7.4. The reaction is carried out for 6 minutes at 30° C. in a total volume of 500 μl. The reaction is stopped by addition of lM citric acid. The 5-HETE is extracted and quantitated using high performance liquid chromatography. The percent activity is calculated as follows: [formula]"}}, "note": "Structures can show the parent of a compound that is named as a salt.", "data": [{"smiles": "COc1ccc(CCNCC(O)COc2ccc3c(=O)cc(-c4ccccc4)oc3c2)cc1OC", "note": "(stereo not shown) [Example 1, 7-[3-[(3,4-dimethoxyphenethyl)amino]-2-hydroxypropoxy]flavone Maleate]", "values": [{"measurement": "inhibition at 10 µM", "setting": "[1]; final tissue bath concentration 1×10^-5 M", "result": 94, "unit": "%"}, {"measurement": "inhibition at 1 µM", "setting": "[1]; final tissue bath concentration 1×10^-6 M", "result": 52.3, "unit": "%"}, {"measurement": "inhibition at 5 µM", "setting": "[1]; final tissue bath concentration 5×10^-6 M", "result": 89.8, "unit": "%"}]}, {"smiles": "O=c1cc(-c2ccccc2)oc2cc(OCC(O)CNCC(O)COc3ccccc3)ccc12", "note": "(stereo not shown) [Example 11, 7-[3-[3-phenoxy-2-(hydroxypropyl)amino]-2-hydroxypropoxy]flavone Hydrochloride]", "values": [{"measurement": "solubility in the balanced salts solution", "setting": "[2]", "result": "insoluble"}, {"measurement": "activity in the rat anaphylaxis test", "setting": "[3]", "result": "active"}]}, {"smiles": "O=c1cc(-c2ccccc2)oc2cc(OCC(O)CN3CCN(c4ccccc4)CC3)ccc12", "note": "(stereo not shown) [Example 12, 7-[3-(N-phenylpiperazinyl)-2-hydroxypropoxy]flavone]", "values": [{"measurement": "solubility in the balanced salts solution", "setting": "[2]", "result": "insoluble"}, {"measurement": "activity in the rat anaphylaxis test", "setting": "[3]", "result": "active"}]}, {"smiles": "Br.O=c1cc(-c2ccccc2)oc2cc(OCC(O)CNCCc3ccc(O)c(O)c3)ccc12", "note": "(stereo not shown) [Example 14, 7-[3-[(3,4-Dihydroxyphenethyl)amino]-2-hydroxypropoxy]flavone Hydrobromide]", "values": [{"measurement": "IC50", "setting": "[4]", "result": "~90", "unit": "nM"}, {"measurement": "percent inhibition of edema", "setting": "[3]; rat, 100 mg/kg ip in 1% Clearjel, paw volume 90 minutes post antigenic challenge", "result": 63, "unit": "%"}]}, {"smiles": "O=c1c(-c2ccccc2)c(-c2ccccc2)oc2cc(OCC(O)CNCCc3ccccc3)ccc12", "note": "(stereo not shown) [Example 18, 3-Phenyl-7-(3-phenethylamino-2-hydroxypropoxy)flavone]", "values": [{"measurement": "solubility in the balanced salts solution", "setting": "[2]", "result": "insoluble"}, {"measurement": "activity in the rat anaphylaxis test", "setting": "[3]", "result": "active"}]}, {"smiles": "O=c1c(-c2ccccc2)c(-c2ccccc2)oc2cc(OCC(O)CNc3ccccc3)ccc12", "note": "(stereo not shown) [Example 19, 3-Phenyl-7-(3-anilino-2-hydroxypropoxy)flavone]", "values": [{"measurement": "activity in the Rat Anaphylaxis test", "setting": "[3]; as hydrochloric acid salt", "result": "inactive"}, {"measurement": "activity in the Rat Anaphylaxis test", "setting": "[3]; free base form", "result": "active"}]}]}
